Experimental data as given in publication PMC8247900 (Clinical Pharmacology and Therapeutics, 2021).

How the values were obtained:
[1] = assay type: in vivo, human
CYP2C19 mRNA = assay: Induction of CYP mRNA expression in HepaRG cells; assay type: cell-based, human; conditions: 72 hours, 300 µM 4‐MAA, 10 µM rifampicin; for CYP2C19 mRNA induction in 5‐F cells: 5‐F control HepaRG cells, 1 µM CITCO
CYP2B6 mRNA = assay: Induction of CYP mRNA expression in HepaRG cells; assay type: cell-based, human; conditions: 72 hours, 300 µM 4‐MAA, 10 µM rifampicin; for CYP2B6 mRNA induction in 5‐F cells: 5‐F control HepaRG cells, 1 µM CITCO
CYP2C9 mRNA = assay: Induction of CYP mRNA expression in HepaRG cells; assay type: cell-based, human; conditions: 5‐F control HepaRG cells, 72 hours; 300 µM 4‐MAA, 1 µM CITCO, 10 µM rifampicin
CYP1A2 mRNA = assay: Induction of CYP mRNA expression in HepaRG cells; assay type: cell-based, human; conditions: 72 hours
CYP1A2 [2] = assay type: in vivo, human; conditions: male, human, plasma, oral
CYP2B6 [3] = assay: Clinical phenotyping cocktail study: effect of metamizole on CYP2B6; assay type: in vivo, human; conditions: 3 g of metamizole per day for 1 week
CYP2D6 = assay: Clinical phenotyping cocktail study: effect of metamizole on CYP2D6; assay type: in vivo, human
CYP2C9 = assay: Clinical phenotyping cocktail study: effect of metamizole on CYP2C9; assay type: in vivo, human; conditions: 3 g of metamizole per day for 1 week
CYP2B6 [4] = conditions: healthy volunteers, 1.5 g metamizole per day for 4 days; cited from earlier work
[5] = patients after organ transplantation; cited from earlier work
CYP1A2 [6] = target: T1, CYP1A2 (Homo sapiens, UniProt P05177); assay: Clinical phenotyping cocktail study: effect of metamizole on CYP1A2; assay type: in vivo
T1 sequence (P05177 1-516): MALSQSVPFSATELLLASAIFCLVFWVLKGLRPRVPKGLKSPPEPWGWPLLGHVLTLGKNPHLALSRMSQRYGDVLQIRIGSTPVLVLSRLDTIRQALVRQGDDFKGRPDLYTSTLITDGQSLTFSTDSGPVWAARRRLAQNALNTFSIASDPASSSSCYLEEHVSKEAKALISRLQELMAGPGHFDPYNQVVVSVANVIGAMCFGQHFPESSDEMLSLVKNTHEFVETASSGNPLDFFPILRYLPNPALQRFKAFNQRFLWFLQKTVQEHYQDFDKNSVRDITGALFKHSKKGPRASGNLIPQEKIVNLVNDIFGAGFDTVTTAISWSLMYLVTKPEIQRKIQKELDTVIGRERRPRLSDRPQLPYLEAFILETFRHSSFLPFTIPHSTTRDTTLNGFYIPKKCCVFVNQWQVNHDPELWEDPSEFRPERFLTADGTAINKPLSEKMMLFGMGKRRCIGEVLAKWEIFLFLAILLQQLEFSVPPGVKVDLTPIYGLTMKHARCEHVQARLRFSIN

CYP2C19 = assay: Clinical phenotyping cocktail study: effect of metamizole on CYP2C19; assay type: in vivo, human; conditions: 3 g of metamizole per day for 1 week
[7] = retrospective study, patients treated with metamizole; cited from earlier work
CYP3A4 = assay: Clinical phenotyping cocktail study: effect of metamizole on CYP3A4; assay type: in vivo, human; conditions: 3 g of metamizole per day for 1 week
CYP2D6 mRNA = assay: Induction of CYP mRNA expression in HepaRG cells; assay type: cell-based, human; conditions: differentiated HepaRG cells, 72 hours; 300 µM 4‐MAA; 2 mM metformin
[8] = clinical study, 3 g of metamizole per day for 1 week
[9] = differentiated HepaRG cells, vs DMSO control

CC(C(=O)O)c1ccc(-c2ccc(O)cc2)c(F)c1 (centres unmarked) [4′‐hydroxyflurbiprofen]
AUC(0-inf) ([1]; male, human, plasma, oral): 0.726 µg·h/mL

Clc1ccc(-c2nc3sccn3c2C=NOCc2ccc(Cl)c(Cl)c2)cc1 [CITCO, 6‐(4‐chlorophenyl)imidazo[2,1‐b][1,3]thiazole‐5‐carbaldehyde O‐(3,4‐dichlorobenzyl)oxime]
CYP2C19 mRNA induction in 5‐F cells (CYP2C19 mRNA): induced
CYP2B6 mRNA induction in 5‐F cells (CYP2B6 mRNA): induced
CYP2C9 mRNA induction in 5‐F cells (CYP2C9 mRNA): not significant
CYP3A4 mRNA induction in 5‐F cells (CYP3A4 mRNA): not significant
CYP1A2 mRNA induction in 5‐F cells (CYP1A2 mRNA; 5‐F control HepaRG cells, 1 µM CITCO): induced
CYP1A2 mRNA induction in HepaRG cells lacking CAR (CYP1A2 mRNA; CAR‐knockout HepaRG cells, 1 µM CITCO): still induced

Cn1c(=O)c2c(ncn2C)n(C)c1=O [Caffeine, caffeine]
AUC(0-inf) ([1]; male, human, plasma, oral): 7.21 µg·h/mL

O=C1Nc2ccc(Cl)cc2[C@@](C#CC2CC2)(C(F)(F)F)O1 [Efavirenz, efavirenz]
Basal metabolic ratio in CYP2B6 NM ([1]; basal state, CYP2B6 *1/*1 carriers (normal metabolizers, four subjects)): 96.3
Basal metabolic ratio in CYP2B6 IM ([1]; basal state, CYP2B6 *1/*6 carriers (intermediate metabolizers, eight subjects)): 87.5
AUC(0-inf) ([1]; male, human, plasma, oral): 3.98 µg·h/mL

CC(C(=O)O)c1ccc(-c2ccccc2)c(F)c1 (centres unmarked) [Flurbiprofen, flurbiprofen]
AUC(0-inf) ([1]; male, human, plasma, oral): 10 µg·h/mL

COCCc1ccc(OCC(O)CNC(C)C)cc1 (centres unmarked) [Metoprolol, metoprolol]
AUC(0-inf) ([1]; male, human, plasma, oral): 0.0414 µg·h/mL

Cc1ncc2n1-c1ccc(Cl)cc1C(c1ccccc1F)=NC2 [Midazolam, midazolam]
AUC(0-inf) ([1]; male, human, plasma, oral): 0.0197 µg·h/mL
half-life ([1]; male, human, plasma, oral): 2.44 h

COc1ccc2[nH]c([S+]([O-])Cc3ncc(C)c(OC)c3C)nc2c1 (centres unmarked) [Omeprazole, omeprazole]
AUC(0-inf) ([1]; male, human, plasma, oral): 0.187 µg·h/mL

Cn1c(=O)[nH]c2ncn(C)c2c1=O [Paraxanthine, paraxanthine]
AUC(0-inf) ([1]; male, human, plasma, oral): 4.68 µg·h/mL
AUC(0-inf) (CYP1A2 [2]): 4.62 µg·h/mL

Cc1c(N(C)CS(=O)(=O)O)c(=O)n(-c2ccccc2)n1C [metamizole, Metamizole]
effect on CYP2B6 activity (CYP2B6 [3]): moderate induction
effect on CYP2D6 activity (CYP2D6; [8]): did not alter
change in the MR of metoprolol (CYP2D6; metamizole 3 × 1 g per day for 7 days): no significant change
effect on CYP2C9 activity (CYP2C9): weakly induced
increase in the bupropion hydroxylase activity (CYP2B6 [4]): 2.1 fold
effect on cyclosporine blood concentrations [5]: decreased
effect on CYP1A2 activity (CYP1A2 [6]; [8]): weakly inhibited
change in caffeine:paraxanthine MR (CYP1A2 [6]; metamizole 3 × 1 g per day for 7 days, P = 0.0024): significant increase
effect on CYP2C19 activity (CYP2C19): moderately
lower sertraline plasma concentrations than patients without metamizole [7]: 67%
effect on CYP3A4 activity (CYP3A4): moderate induction

CN(C)C(=N)N=C(N)N [metformin]
effect on CYP2D6 mRNA (CYP2D6 mRNA): not significantly affected
effect on CYP1A2 mRNA (CYP1A2 mRNA; differentiated HepaRG cells, 300 µM 4‐MAA, 2 mM metformin): suppressed

CO[C@H]1/C=C/O[C@@]2(C)Oc3c(C)c(O)c4c(O)c(c(/C=N/N5CCN(C)CC5)c(O)c4c3C2=O)NC(=O)/C(C)=C\C=C\[C@H](C)[C@H](O)[C@@H](C)[C@@H](O)[C@@H](C)[C@H](OC(C)=O)[C@@H]1C [rifampicin]
CYP2C19 mRNA induction in 5‐F cells (CYP2C19 mRNA): increased
increase of CYP2C19 mRNA content (CYP2C19 mRNA; [9]): 2.2 fold
CYP2B6 mRNA induction in 5‐F cells (CYP2B6 mRNA): not significant
increase of CYP2B6 mRNA content (CYP2B6 mRNA; [9]): 4.3 fold
